# Test results from paper PMC6540285, “Evaluation of Protein Kinase Inhibitors with PLK4 Cross-Over Potential in a Pre-Clinical Model of Cancer” (International Journal of Molecular Sciences, 2019).
# Key:
# BT-16 cells = type: cell-based; settings: BT-16, read-out: MTT: IC50 of the proliferation assay
# AMPK (A1/B2/G1) = AMPK (A1/B2/G1) (Homo sapiens, UniProt Q13131); experiment: SelectScreen kinase profiling, LanthaScreen binding
# AXL R499C = AXL R499C (Homo sapiens, UniProt P30530, R499C); experiment: as above
# BRAF = BRAF (Homo sapiens, UniProt P15056); experiment: SelectScreen kinase profiling, ZLYTE; type: biochemical
# CASK = CASK (Homo sapiens, UniProt O14936); experiment: SelectScreen kinase profiling, LanthaScreen binding
# CDC42 BPG (MRCKG) = CDC42 BPG (MRCKG) (Homo sapiens, UniProt Q6DT37); experiment: SelectScreen kinase profiling, ZLYTE; type: biochemical
# CDK7/cyclin H/MNAT1 = CDK7/cyclin H/MNAT1 (Homo sapiens, UniProt P50613); experiment: SelectScreen kinase profiling, Adapta; type: biochemical; settings: CDK7/cyclin H/MNAT1, 10 µM
# CHEK2 (CHK2) = CHEK2 (CHK2) (Homo sapiens, UniProt O96017); experiment: SelectScreen kinase profiling, ZLYTE; type: biochemical
# DCAMKL1 (DCLK1) = DCAMKL1 (DCLK1) (Homo sapiens, UniProt O15075); experiment: SelectScreen kinase profiling, ZLYTE; type: biochemical
# DMPK = DMPK (Homo sapiens, UniProt Q09013); experiment: SelectScreen kinase profiling, LanthaScreen binding
# EPHB1 = EPHB1 (Homo sapiens, UniProt P54762); experiment: SelectScreen kinase profiling, ZLYTE; type: biochemical; settings: EPHB1, 10 µM
# EPHB2 = EPHB2 (Homo sapiens, UniProt P29323); experiment: SelectScreen kinase profiling, ZLYTE; type: biochemical; settings: EPHB2, 10 µM
# EPHB3 = EPHB3 (Homo sapiens, UniProt P54753); experiment: SelectScreen kinase profiling, ZLYTE; type: biochemical; settings: EPHB3, 10 µM
# FER = FER (Homo sapiens, UniProt P16591); experiment: SelectScreen kinase profiling, ZLYTE; type: biochemical
# FGFR3 K650M = FGFR3 K650M (Homo sapiens, UniProt P22607, K650M); experiment: SelectScreen kinase profiling, LanthaScreen binding
# FLT3 ITD = experiment: as above; settings: 10 µM
# HUNK = HUNK (Homo sapiens, UniProt P57058); experiment: as above
# IRAK3 = IRAK3 (Homo sapiens, UniProt Q9Y616); experiment: as above; settings: IRAK3, 10 µM
# JAK1 = JAK1 (Homo sapiens, UniProt P23458); experiment: SelectScreen kinase profiling, ZLYTE; type: biochemical; settings: JAK1, 10 µM
# LATS1 = LATS1 (Homo sapiens, UniProt O95835); experiment: SelectScreen kinase profiling, LanthaScreen binding; settings: LATS1, 10 µM
# LRRK2 G2019S FL = LRRK2 G2019S FL (Homo sapiens, UniProt Q5S007, G2019S); experiment: SelectScreen kinase profiling, Adapta; type: biochemical
# LRRK2 I2020T = LRRK2 I2020T (Homo sapiens, UniProt Q5S007, I2020T); experiment: SelectScreen kinase profiling, Adapta; type: biochemical
# LTK (TYK1) = LTK (TYK1) (Homo sapiens, UniProt P29376); experiment: SelectScreen kinase profiling, ZLYTE; type: biochemical
# MAP3K10 (MLK2) = MAP3K10 (MLK2) (Homo sapiens, UniProt Q02779); experiment: SelectScreen kinase profiling, LanthaScreen binding
# [1] = biological target: MAP3K7/MAP3K7IP1 (TAK1-TAB1) (Homo sapiens, UniProt O43318); experiment: as above
# MAPK9 (JNK2) = MAPK9 (JNK2) (Homo sapiens, UniProt P45984); experiment: SelectScreen kinase profiling, ZLYTE; type: biochemical
# MET M1250T = MET M1250T (Homo sapiens, UniProt P08581, M1250T); experiment: SelectScreen kinase profiling, ZLYTE; type: biochemical
# NEK1 = NEK1 (Homo sapiens, UniProt Q96PY6); experiment: SelectScreen kinase profiling, ZLYTE; type: biochemical; settings: NEK1, 10 µM
# PASK = PASK (Homo sapiens, UniProt Q96RG2); experiment: SelectScreen kinase profiling, ZLYTE; type: biochemical
# PHKG2 = PHKG2 (Homo sapiens, UniProt P15735); experiment: SelectScreen kinase profiling, ZLYTE; type: biochemical; settings: PHKG2, 10 µM
# PI4K2A (PI4K2 alpha) = PI4K2A (PI4K2 alpha) (Homo sapiens, UniProt Q9BTU6); experiment: SelectScreen kinase profiling, Adapta; type: biochemical
# PRKACB (PRKAC beta) = PRKACB (PRKAC beta) (Homo sapiens, UniProt P22694); experiment: SelectScreen kinase profiling, LanthaScreen binding
# PTK2B (FAK2) = PTK2B (FAK2) (Homo sapiens, UniProt Q14289); experiment: SelectScreen kinase profiling, ZLYTE; type: biochemical
# RET V804L = RET V804L (Homo sapiens, UniProt P07949, V804L); experiment: SelectScreen kinase profiling, ZLYTE; type: biochemical
# ROCK2 = ROCK2 (Homo sapiens, UniProt O75116); experiment: SelectScreen kinase profiling, ZLYTE; type: biochemical; settings: ROCK2, 10 µM
# RPS6KA1 (RSK1) = RPS6KA1 (RSK1) (Homo sapiens, UniProt Q15418); experiment: SelectScreen kinase profiling, ZLYTE; type: biochemical
# RPS6KA5 (MSK1) = RPS6KA5 (MSK1) (Homo sapiens, UniProt O75582); experiment: SelectScreen kinase profiling, ZLYTE; type: biochemical
# SGK2 = SGK2 (Homo sapiens, UniProt Q9HBY8); experiment: SelectScreen kinase profiling, ZLYTE; type: biochemical; settings: SGK2, 10 µM
# TEK (TIE2) Y1108F = TEK (TIE2) Y1108F (Homo sapiens, UniProt Q02763, Y1108F); experiment: SelectScreen kinase profiling, LanthaScreen binding
# hERG channel = hERG channel (Homo sapiens, UniProt Q12809); experiment: Predictor hERG fluorescence polarization assay; settings: 10000nM
# Chain of PASK (Q96RG2 whole entry): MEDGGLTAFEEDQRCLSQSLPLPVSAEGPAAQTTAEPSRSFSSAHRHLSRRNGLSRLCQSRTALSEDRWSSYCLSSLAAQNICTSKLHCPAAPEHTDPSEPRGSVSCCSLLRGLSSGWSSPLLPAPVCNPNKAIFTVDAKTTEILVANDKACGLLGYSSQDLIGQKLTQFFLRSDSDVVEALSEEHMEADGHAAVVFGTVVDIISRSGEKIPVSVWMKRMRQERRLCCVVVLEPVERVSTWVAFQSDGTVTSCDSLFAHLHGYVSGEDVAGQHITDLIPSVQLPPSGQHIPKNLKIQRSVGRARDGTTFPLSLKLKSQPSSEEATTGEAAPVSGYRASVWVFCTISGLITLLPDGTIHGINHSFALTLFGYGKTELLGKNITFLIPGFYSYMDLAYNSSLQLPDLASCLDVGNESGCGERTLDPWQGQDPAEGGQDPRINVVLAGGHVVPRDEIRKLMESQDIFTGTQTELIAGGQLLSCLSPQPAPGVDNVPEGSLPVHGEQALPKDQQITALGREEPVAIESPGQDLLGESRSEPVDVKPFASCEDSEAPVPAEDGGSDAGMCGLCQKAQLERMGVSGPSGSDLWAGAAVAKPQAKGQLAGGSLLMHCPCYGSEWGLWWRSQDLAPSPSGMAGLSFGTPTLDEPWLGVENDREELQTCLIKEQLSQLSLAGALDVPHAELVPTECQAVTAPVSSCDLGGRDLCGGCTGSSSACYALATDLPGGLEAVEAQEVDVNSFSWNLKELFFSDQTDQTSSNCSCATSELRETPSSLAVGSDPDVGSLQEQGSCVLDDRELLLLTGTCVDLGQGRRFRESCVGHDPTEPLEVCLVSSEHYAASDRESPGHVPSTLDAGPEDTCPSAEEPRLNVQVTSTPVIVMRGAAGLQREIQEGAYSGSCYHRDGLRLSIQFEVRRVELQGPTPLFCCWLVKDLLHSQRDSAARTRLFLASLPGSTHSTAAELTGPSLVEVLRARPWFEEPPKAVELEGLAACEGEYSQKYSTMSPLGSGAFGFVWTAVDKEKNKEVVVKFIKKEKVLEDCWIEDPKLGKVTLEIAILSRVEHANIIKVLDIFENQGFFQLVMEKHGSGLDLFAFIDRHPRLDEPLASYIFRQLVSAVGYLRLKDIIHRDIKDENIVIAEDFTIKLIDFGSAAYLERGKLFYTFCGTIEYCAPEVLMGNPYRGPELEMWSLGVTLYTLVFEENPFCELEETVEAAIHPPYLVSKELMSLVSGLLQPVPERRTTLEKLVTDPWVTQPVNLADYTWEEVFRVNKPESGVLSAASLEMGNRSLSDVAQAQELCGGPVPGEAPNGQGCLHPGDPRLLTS
# Chain of EPHB3 (P54753 34-998): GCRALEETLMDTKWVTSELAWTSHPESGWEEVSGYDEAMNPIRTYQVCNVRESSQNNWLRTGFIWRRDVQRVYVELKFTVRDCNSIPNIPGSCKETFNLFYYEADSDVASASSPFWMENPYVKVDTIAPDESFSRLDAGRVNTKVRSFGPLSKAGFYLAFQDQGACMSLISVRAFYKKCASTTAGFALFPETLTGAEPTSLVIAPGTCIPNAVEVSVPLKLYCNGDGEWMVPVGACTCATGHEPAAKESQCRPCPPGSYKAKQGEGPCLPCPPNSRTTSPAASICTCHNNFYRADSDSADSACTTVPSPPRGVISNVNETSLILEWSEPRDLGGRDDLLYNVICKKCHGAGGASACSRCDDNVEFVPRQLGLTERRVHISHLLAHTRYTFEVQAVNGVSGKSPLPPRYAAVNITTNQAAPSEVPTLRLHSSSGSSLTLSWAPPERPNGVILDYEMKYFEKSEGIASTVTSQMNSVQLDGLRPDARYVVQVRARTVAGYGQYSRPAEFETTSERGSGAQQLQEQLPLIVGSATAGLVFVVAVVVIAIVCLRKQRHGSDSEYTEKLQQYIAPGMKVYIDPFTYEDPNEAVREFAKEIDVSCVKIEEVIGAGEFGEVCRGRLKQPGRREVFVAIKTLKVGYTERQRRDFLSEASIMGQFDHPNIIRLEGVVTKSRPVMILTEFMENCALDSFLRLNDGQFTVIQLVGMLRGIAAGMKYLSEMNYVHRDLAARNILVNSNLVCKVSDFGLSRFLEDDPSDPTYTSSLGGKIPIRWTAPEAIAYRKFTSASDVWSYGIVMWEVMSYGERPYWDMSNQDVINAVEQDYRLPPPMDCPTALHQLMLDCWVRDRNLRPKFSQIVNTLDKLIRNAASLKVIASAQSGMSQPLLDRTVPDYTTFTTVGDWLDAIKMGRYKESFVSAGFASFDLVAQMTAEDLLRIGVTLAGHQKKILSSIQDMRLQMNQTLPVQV
# Chain of RPS6KA1 (RSK1) (Q15418 whole entry): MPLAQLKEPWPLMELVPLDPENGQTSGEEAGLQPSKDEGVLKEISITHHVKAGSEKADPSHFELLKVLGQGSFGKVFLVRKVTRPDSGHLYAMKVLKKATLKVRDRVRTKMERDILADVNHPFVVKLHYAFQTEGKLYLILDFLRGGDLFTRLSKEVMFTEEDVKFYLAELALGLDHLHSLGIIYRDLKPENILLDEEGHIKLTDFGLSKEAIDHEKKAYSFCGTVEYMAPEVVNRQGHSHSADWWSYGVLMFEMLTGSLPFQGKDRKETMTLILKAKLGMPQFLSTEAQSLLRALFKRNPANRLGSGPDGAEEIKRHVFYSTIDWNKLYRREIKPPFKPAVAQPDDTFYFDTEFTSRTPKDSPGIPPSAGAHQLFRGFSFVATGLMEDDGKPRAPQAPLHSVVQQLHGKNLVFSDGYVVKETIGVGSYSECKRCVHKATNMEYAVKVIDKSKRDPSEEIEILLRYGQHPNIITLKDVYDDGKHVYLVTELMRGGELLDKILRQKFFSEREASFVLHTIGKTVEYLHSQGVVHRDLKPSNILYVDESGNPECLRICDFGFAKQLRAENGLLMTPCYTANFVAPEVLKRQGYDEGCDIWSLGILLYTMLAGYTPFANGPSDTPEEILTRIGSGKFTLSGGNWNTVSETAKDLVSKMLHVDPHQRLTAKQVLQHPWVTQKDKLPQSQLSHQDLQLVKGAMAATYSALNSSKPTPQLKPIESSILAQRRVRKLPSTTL
# Chain of HUNK (P57058 whole entry): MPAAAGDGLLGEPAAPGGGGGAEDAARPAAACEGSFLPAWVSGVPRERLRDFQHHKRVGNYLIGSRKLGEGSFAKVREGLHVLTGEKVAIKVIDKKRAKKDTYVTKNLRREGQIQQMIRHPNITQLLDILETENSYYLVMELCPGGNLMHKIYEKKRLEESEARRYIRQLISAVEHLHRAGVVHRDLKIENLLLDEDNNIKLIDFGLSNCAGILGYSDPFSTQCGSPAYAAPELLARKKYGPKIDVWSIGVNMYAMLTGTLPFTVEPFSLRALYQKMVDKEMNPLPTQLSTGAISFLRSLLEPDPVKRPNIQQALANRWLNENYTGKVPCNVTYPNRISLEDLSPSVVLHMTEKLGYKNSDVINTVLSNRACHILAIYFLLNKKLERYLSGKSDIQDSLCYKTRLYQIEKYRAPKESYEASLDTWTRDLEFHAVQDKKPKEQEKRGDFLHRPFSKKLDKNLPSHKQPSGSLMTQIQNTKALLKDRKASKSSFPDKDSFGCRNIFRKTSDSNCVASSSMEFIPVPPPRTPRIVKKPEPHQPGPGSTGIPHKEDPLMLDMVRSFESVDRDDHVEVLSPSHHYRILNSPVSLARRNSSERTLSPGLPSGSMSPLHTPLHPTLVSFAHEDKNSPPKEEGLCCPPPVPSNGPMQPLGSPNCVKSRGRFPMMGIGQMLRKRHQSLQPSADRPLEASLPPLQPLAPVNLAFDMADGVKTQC
# Chain of MAP3K10 (MLK2) (Q02779 whole entry): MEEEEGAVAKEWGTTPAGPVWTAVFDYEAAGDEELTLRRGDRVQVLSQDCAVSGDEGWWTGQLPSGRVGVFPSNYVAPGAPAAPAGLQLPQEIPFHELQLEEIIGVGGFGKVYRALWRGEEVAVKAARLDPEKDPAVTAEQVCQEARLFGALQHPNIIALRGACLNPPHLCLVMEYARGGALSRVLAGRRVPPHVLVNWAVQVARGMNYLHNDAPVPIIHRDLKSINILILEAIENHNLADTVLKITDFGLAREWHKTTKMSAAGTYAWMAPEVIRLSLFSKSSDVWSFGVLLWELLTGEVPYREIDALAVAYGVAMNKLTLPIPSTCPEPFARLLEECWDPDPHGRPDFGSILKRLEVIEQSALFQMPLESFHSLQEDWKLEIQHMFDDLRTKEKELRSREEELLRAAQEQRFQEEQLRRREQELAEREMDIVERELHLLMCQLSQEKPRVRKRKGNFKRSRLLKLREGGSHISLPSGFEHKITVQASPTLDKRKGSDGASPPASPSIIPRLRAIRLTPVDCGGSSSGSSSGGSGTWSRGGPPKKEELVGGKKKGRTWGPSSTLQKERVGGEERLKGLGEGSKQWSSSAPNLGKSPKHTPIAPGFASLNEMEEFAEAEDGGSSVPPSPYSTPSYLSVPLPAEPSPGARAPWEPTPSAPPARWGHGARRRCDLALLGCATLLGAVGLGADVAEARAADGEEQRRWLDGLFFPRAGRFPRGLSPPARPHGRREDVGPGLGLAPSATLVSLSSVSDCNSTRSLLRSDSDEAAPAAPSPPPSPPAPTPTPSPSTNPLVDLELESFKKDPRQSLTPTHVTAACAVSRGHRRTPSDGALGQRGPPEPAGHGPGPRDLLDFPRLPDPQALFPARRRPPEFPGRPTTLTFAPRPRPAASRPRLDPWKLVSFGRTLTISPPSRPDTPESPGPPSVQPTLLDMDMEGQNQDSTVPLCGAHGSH
# Chain of PHKG2 (P15735 whole entry): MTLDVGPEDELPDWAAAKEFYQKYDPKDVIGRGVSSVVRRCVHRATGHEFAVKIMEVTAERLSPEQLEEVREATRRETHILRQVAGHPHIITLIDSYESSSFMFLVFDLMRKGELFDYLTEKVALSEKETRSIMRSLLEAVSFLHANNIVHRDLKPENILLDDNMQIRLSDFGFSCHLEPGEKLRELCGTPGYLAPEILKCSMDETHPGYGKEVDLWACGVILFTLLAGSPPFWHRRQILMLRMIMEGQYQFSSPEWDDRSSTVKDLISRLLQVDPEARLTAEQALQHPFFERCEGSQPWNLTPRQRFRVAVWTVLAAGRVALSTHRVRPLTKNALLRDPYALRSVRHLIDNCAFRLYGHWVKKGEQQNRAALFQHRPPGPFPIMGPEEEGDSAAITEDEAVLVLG
smiles,measurement,setting,value
O=C(c1ccc(/C=C/c2n[nH]c3ccccc23)cc1)N1CCNCC1 [KW-2449],IC50,BT-16 cells,> 10 µM
same,inhibition at 10 µM,AMPK (A1/B2/G1),77%
same,inhibition at 10 µM,AXL R499C,45%
same,inhibition at 10 µM,BRAF,67%
same,inhibition at 10 µM,CASK,-63%
same,inhibition at 10 µM,CDC42 BPG (MRCKG),68%
same,inhibition at 10 µM,CDK7/cyclin H/MNAT1,98%
same,inhibition at 10 µM,CHEK2 (CHK2),100%
same,inhibition at 10 µM,DCAMKL1 (DCLK1),57%
same,inhibition at 10 µM,DMPK,77%
same,inhibition at 10 µM,EPHB1,97%
same,inhibition at 10 µM,EPHB2,95%
same,inhibition at 10 µM,EPHB3,21%
same,inhibition at 10 µM,FER,98%
same,inhibition at 10 µM,FGFR3 K650M,22%
same,% Inhibition Avg,FLT3 ITD,5%
same,inhibition at 10 µM,HUNK,84%
same,inhibition at 10 µM,IRAK3,31%
same,inhibition at 10 µM,JAK1,94%
same,inhibition at 10 µM,LATS1,-17%
same,inhibition at 10 µM,LRRK2 G2019S FL,100%
same,inhibition at 10 µM,LRRK2 I2020T,100%
same,inhibition at 10 µM,LTK (TYK1),90%
same,inhibition at 10 µM,MAP3K10 (MLK2),87%
same,inhibition at 10 µM,[1],26%
same,inhibition at 10 µM,MAPK9 (JNK2),87%
same,inhibition at 10 µM,MET M1250T,96%
same,inhibition at 10 µM,NEK1,67%
same,inhibition at 10 µM,PASK,10%
same,inhibition at 10 µM,PHKG2,99%
same,inhibition at 10 µM,PI4K2A (PI4K2 alpha),4%
same,inhibition at 10 µM,PRKACB (PRKAC beta),48%
same,inhibition at 10 µM,PTK2B (FAK2),96%
same,inhibition at 10 µM,RET V804L,100%
same,inhibition at 10 µM,ROCK2,83%
same,inhibition at 10 µM,RPS6KA1 (RSK1),94%
same,inhibition at 10 µM,RPS6KA5 (MSK1),49%
same,inhibition at 10 µM,SGK2,95%
same,inhibition at 10 µM,TEK (TIE2) Y1108F,72%
same,hERG % Inhibition,hERG channel,19%
